Results on one cell line are retold here after the supplement of paper PMC10307832.

What all share (experiment): relative viability (nuclei count vs DMSO), 5 days (fraction); higher = more cells survive
Compound in assay [1]: CCn1c(-c2nonc2N)nc2cnc(Oc3cccc(NC(=O)c4ccc(OCCN5CCOCC5)cc4)c3)cc21 + CS(=O)(=O)CCNCc1ccc(-c2ccc3ncnc(Nc4ccc(OCc5cccc(F)c5)c(Cl)c4)c3c2)o1 [Lapatinib] (partner 2 µM)
In a few lines: (§1)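 Relative viability was taken as the ratio of nuclei in treated wells to nuclei in vehicle wells. Lung cancer cell lines in 1536-well plates received compounds by pin tool one day after seeding, either one drug alone or a fixed anchor-drug dose plus five library-drug doses (not always all listed) in √10 steps. Nuclei were counted on 4× images after 5 days of treatment, and values are medians of duplicate plates.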

Compound in the assay “Mirin + Luminespib”: N=C1NC(=O)/C(=C/c2ccc(O)cc2)S1 [Mirin] + CCNC(=O)c1noc(-c2cc(C(C)C)c(O)cc2O)c1-c1ccc(CN2CCOCC2)cc1 [Luminespib] (partner 0.01 µM)
In a few lines:
as §1

Compound in the assay “Mirin + Foretinib”: N=C1NC(=O)/C(=C/c2ccc(O)cc2)S1 [Mirin] + COc1cc2c(Oc3ccc(NC(=O)C4(C(=O)Nc5ccc(F)cc5)CC4)cc3F)ccnc2cc1OCCCN1CCOCC1 [Foretinib] (partner 0.25 µM)
In a few lines:
as §1

Compound in assay [2]: CCC1=CN=CN=C1N2CCN(CC2)CC3=NC4=C(N3)C=C(C=C4)C(F)(F)F + COc1cccc2cc(-c3nc([C@H]4CC[C@H](C(=O)O)CC4)n4ncnc(N)c34)[nH]c12 [OSI-027] (partner 0.5 µM)
In a few lines:
as §1

Consider UMC-11, for which the relative viability in assay [1] (first compound 0.04 µM) turned out to be 0.959; in assay [1] (first compound 0.1265 µM), 0.833; in assay [1] (first compound 0.4 µM), 0.509; in assay [1] (first compound 1.265 µM) it was 0.223; in assay [1] (first compound 4 µM), 0.258; with Mirin + Luminespib (first compound 0.25 µM), 1.09. Also, the relative viability was determined as 0.983 in the assay with Mirin + Luminespib (first compound 0.7906 µM); 1.01 with Mirin + Luminespib (first compound 2.5 µM); 0.826 with Mirin + Luminespib (first compound 7.906 µM); 0.695 in the assay with Mirin + Luminespib (first compound 25 µM); 1.03 with Mirin + Foretinib (first compound 0.25 µM); 1.05 in the assay with Mirin + Foretinib (first compound 0.7906 µM). Further, the relative viability amounted to 1 in the assay with Mirin + Foretinib (first compound 2.5 µM); 0.918 with Mirin + Foretinib (first compound 7.906 µM); 0.61 with Mirin + Foretinib (first compound 25 µM); 0.464 in assay [2] (first compound 0.04 µM); 0.495 in assay [2] (first compound 0.1265 µM); 0.417 in assay [2] (first compound 0.4 µM). Further, the results for the relative viability in assay [2] (first compound 1.265 µM) and in assay [2] (first compound 4 µM) were 0.445 and 0.406, respectively.
